Here are results for one molecule from ChEMBL document CHEMBL2074387, “Expression of the bile salt export pump is maintained after chronic cholestasis in the rat” (Gastroenterology, 2000).

For data set [1], the target named is T1, Hepatic sodium/bile acid cotransporter (Rattus norvegicus, UniProt P26435).
T1 sequence (P26435 whole entry): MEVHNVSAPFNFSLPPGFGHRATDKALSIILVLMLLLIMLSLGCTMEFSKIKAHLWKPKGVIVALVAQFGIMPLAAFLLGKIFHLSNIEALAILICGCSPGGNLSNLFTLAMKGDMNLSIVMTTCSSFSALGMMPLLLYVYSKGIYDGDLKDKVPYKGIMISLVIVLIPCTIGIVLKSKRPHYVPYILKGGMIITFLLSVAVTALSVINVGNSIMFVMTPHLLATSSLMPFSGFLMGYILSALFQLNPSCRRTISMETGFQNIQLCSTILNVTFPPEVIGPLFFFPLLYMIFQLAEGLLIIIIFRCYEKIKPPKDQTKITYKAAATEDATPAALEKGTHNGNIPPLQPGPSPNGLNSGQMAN
Kind of data set: TP_TRANSPORTER: Northern blot in vivo SD rat, liver. The data set is classed as functional, organism-based, Sprague-Dawley.

Another data set has as its target T2, Bile salt export pump (Rattus norvegicus, UniProt O70127).
T2 sequence (O70127 whole entry): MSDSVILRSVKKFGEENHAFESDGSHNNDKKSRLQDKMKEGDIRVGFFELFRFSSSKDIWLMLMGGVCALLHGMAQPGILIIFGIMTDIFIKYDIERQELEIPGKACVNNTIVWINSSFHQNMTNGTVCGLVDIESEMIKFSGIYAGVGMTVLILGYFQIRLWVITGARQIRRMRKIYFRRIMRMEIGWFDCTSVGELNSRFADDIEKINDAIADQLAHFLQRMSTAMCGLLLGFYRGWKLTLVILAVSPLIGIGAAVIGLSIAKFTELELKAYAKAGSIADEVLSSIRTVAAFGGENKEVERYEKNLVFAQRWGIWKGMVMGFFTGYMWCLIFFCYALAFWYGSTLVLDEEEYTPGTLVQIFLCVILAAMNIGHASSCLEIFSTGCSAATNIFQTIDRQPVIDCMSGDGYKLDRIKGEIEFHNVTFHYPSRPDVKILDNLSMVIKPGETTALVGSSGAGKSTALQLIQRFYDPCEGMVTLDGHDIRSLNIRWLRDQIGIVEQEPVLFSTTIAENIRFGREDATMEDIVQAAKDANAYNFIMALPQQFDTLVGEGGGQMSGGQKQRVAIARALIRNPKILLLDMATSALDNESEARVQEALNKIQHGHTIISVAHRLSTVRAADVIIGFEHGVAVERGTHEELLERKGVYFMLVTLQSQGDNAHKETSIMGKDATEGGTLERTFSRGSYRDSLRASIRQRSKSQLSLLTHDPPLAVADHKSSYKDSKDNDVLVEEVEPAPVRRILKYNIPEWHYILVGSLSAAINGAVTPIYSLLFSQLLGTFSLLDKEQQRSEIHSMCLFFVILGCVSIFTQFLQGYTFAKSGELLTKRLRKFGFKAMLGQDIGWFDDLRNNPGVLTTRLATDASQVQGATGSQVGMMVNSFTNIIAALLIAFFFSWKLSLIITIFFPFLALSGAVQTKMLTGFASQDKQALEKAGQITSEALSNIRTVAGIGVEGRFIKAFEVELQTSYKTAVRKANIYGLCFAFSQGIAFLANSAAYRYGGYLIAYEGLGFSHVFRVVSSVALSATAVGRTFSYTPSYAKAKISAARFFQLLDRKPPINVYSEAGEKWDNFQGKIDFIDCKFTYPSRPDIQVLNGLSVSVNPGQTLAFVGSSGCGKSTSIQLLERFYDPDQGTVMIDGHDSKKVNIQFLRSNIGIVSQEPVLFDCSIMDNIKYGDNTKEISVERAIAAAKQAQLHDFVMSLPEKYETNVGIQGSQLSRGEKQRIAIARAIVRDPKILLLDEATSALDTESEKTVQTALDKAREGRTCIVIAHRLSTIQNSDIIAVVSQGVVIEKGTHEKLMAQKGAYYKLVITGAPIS
The experiment in a line: TP_TRANSPORTER: Western in vivo SD rat, liver. It counts as functional, organism-based, Sprague-Dawley.

Consider `C#C[C@]1(O)CC[C@H]2[C@@H]3CCc4cc(O)ccc4[C@H]3CC[C@@]21C` [ETHINYL ESTRADIOL], for which the Activity entry (in data set [1]; at Bile salt export pump) was “inducer [Decrease]” throughout.
